In patent US20160075689A1, “POLYMERASE, ENDONUCLEASE, AND HELICASE INHIBITORS AND METHODS OF USING THEREOF” (THE BOARD OF TRUSTEES OF THE UNIVERSITY OF ARKANSAS, priority 2013, published 2016):
Values joined by “and” are separate entries in the source; they are usually repeats but may differ in a detail not shown here. Equal entries are not always repeated.

Experiments:
NS3-4A = NS3-4A (Hepatitis C virus genotype 1b, UniProt P26663); assay: NS3 protease activity assay; assay type: biochemical, HCV; conditions: 25 μM compound, 50 nM NS3-4A, 100 nM substrate
Description: The protease activity of NS3 was analyzed in the presence of 25 μM ITBA-3-79, ITBA-3-82 or ITBA-3-85 by using 50 nM NS3-4A and 100 nM substrate (Ac-Asp-Glu-Asp-EDANS-Glu-Glu-Abu-L-Lactoyl-Ser-Lys DABCYL-NH2). The emission spectra of EDANS and the absorption spectra of DABCYL overlap making the peptide internally quenched. Cleaving of the substrate by the protease results in an increase in fluorescence that can be measured (λex−355 nm; λem, −500 nm). Telapravir (10 μM) was used as a positive control.

HCV NS3 helicase = molecular target: T1, HCV NS3 helicase (Hepatitis C virus genotype 1b, UniProt P26663); assay: Fluorescence-based helicase assay; assay type: biochemical; conditions: IC50 for inhibition of NS3 helicase, mean ± standard deviation of three data sets
T1 construct: analyze the helicase activity of NS3 helicase in the presence of the compounds; made in house
Description: A library of compounds was screened using a previously validated quantitative assay that measures helicase activity over time. The assay relies upon helicase-catalyzed displacement of a fluorescently-labeled oligonucleotide (FIG. 13A). The concentration of enzyme and compounds used was 250 nM and 20 μM respectively. The experiments were performed in triplicate. […] Three potential helicase inhibitors were identified using the fluorescence based assay. […] The inhibitor compounds identified in our screen were ITBA-3-79, ITBA-3-82 and ITBA-3-85 (FIG. 14A). […] The IC50 value for ITBA-3-79, ITBA-3-82 and ITBA-3-85-mediated inhibition of NS3 helicase ranged˜20 μM (FIG. 14C). The ATPase activity of NS3 (50 μM) was analyzed in the presence of ITBA-3-79, ITBA-3-82 and ITBA-3-85 using a coupled spectrophotometric assay (Raney and Benkovic 1995, (FIG. 15). The protease activity of NS3 was analyzed in the presence of ITBA-3-79, ITBA-3-82 and ITBA-3-85 by using 50 nM NS3-4A and 100 nM substrate (Ac-Asp-Glu-Asp-EDANS-Glu-Glu-Abu-L-Lactoyl-Ser-Lys DABCYL-NH2, FIG. 15. The NS3 helicase activity was analyzed in the presence of 25 μM ITBA-3-79, ITBA-3-82 and ITBA-3-85 (FIG. 16).
A fluorescence based quantitative assay that measures helicase activity over time was employed to screen the compounds. The concentration of enzyme and compounds used was 250 nM and 20 μM respectively. Helicase catalyzes the unwinding of a FAM-labeled dsDNA and the resulting increase in fluorescence is plotted (λex-485 nm; λem, −528 nm). The slope of the initial part of the plot was used to calculate the percentage helicase activity. […] The IC50 value for ITBA-3-79, ITBA-3-82 and ITBA-3-85-mediated inhibition of NS3 helicase was determined using the same assay.

NS3 helicase = molecular target: T2, NS3 helicase (Hepatitis C virus genotype 1b, UniProt P26663); assay: Gel-based helicase assay; assay type: biochemical, HCV; conditions: standard helicase assay
T2 construct: analyze the helicase activity of NS3 helicase in the presence of the compounds; made in house
Description: Benchtop unwinding assays were performed to analyze the helicase activity of NS3 helicase in the presence of the compounds. The unwinding reaction was initiated by mixing the right (N53, compound, assay buffer) and left (radiolabeled substrate, ATP, assay buffer) reactions, which was then quenched. The ssDNA product formed over time is separated from dsDNA substrate by 20% native PAGE. The ratio of dsDNA substrate to ssDNA product is quantified using ImageQuant and the fraction of substrate unwound at each time-point is plotted as a function of time using Kaleidagraph software.

DNase II = molecular target: T3, DNase II (Homo sapiens, UniProt O00115); assay: Endonuclease screening assay, specificity; assay type: biochemical
T3 sequence (O00115 19-360): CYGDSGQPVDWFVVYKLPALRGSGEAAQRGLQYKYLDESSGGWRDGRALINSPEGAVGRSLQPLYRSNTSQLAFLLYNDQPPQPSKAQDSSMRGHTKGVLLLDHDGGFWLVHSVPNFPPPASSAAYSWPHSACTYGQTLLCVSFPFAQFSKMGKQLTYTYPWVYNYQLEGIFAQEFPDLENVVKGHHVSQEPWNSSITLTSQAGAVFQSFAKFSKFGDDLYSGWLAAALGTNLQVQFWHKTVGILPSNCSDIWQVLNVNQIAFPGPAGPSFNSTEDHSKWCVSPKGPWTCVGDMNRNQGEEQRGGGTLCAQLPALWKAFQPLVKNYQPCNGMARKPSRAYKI
Description: (§1) Specificity of a potential inhibitor is important for any in vitro or in vivo application, and generally defines the usefulness of an inhibitor. To determine specificity of the inhibitors for the two EndoG inhibitors, PNR-3-80 and PNR-3-82, their IC50 values for EndoG were compared using the screening assay with the IC50 values for two other endonucleases, DNase I and DNAse II (FIG. 11). These endonucleases were chosen because they represent the majority of endonuclease activity in most mammalian cells and because of their availability as pure enzymes.
(§2) A reaction mixture was prepared in each well of a white 96-well plate (Costar, Corning, N.Y.) as follows: 0.25 μM Cy5.5-labeled oligonucleotide (described in US provisional patent filed Oct. 19, 2012, Ser. No. 61/716,097) 0.3 mM MgCl2, 10 mM Tris-HCl, pH 7.4, 1 μl DMSO containing 5 or 50 ng of test compound, and nuclease-free water for a total reaction volume of 100 μl. The background (negative control) and uninhibited EndoG samples were measured using DMSO only, or DMSO containing recombinant EndoG (4 μg/ml), respectively. After addition of EndoG, fluorescence intensity was kinetically measured on a Bio-Tek Synergy 4.0 plate reader at 37° C. and mean velocity (mRFU/min) within 20 min was automatically calculated by the plate reader. The background was subtracted prior to the calculation of EndoG activity (%). The percent of EndoG activity was calculated from the mean velocity of a compound divided by the mean velocity of DMSO with recombinant EndoG, and the obtained value multiplied by 100.

DNase I = molecular target: T4, DNase I (Homo sapiens, UniProt P24855); assay: Endonuclease screening assay, specificity; assay type: biochemical
T4 sequence (P24855 23-282): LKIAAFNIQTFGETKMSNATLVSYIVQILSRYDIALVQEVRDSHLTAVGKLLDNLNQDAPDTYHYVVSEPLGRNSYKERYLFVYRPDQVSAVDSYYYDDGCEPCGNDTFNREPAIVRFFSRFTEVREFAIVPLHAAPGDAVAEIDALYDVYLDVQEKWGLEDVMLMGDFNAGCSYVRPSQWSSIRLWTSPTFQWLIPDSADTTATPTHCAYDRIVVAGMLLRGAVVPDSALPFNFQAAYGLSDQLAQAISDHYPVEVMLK
Description: as §1, §2

LDH = LDH activity in NRK-52E cell extract; assay type: biochemical; conditions: 0.1 μM and 10 μM
Description: (§3) As a follow up to Example 8, the effects of the EndoG inhibitors PNR-3-80 and PNR-3-82, at 0.1 μM and 10 μM each, on the activities of four other enzymes including RNase A, protease, LDH, and SOD in NRK-52E cell extract were examined. NRK-52E cells were grown to ˜80% confluence in […]. The medium was aspirated and the cells were rinsed with ice cold 1×PBS, pH 7.4. The cells were lysed in 50 mM Tris-HCl, pH 7.4, 150 mM NaCl, 1% Triton X-100 for 10 min on ice and then briefly sonicated. Cell debris was removed by centrifugation at 13,000×g for 10 min at 4° C. The supernatant was collected and stored at −80° C. until use. LDH, Protease, Superoxide dismutase (SOD), and Ribonuclease A (RNase A) activities were measured by using CytoTox 96® Non-Radioactive Cytotoxicity Assay kit (Promega, Madison, Wis.), Protease Fluorescent Detection kit (Sigma-Aldrich, Saint Louis, Mo.), SOD determination kit (Sigma-Aldrich, Saint Louis, Mo.), and Ribonuclease A Detection kit (Sigma-Aldrich, Saint Louis, Mo.), respectively, according to the manufacturer's instructions.

[1] = system: EndoG-expressing PC3 cells; assay: Cytoprotection against Docetaxel-induced cell death, LDH release and TUNEL assays; assay type: cell-based, human; conditions: Docetaxel 80 μM, inhibitor 50 μM
Description: Docetaxel is an anti-cancer drug used to treat prostate cancer. Human invasive prostate cancer PC3 cells are known to be resistant to anticancer drugs. […] The resulting EndoG-expressing PC3 cells were exposed with Docetaxel (80 μM) in the absence or presence of the inhibitors, PNR-3-80 or PNR-3-82 (50 μM each). The cell death was measured by using two methods, LDH release assay and TUNEL assay. […]

EndoG [2] = molecular target: T5, EndoG (Homo sapiens, UniProt Q14249); assay: High-throughput EndoG screening assay; assay type: biochemical
T5 sequence (Q14249 49-297): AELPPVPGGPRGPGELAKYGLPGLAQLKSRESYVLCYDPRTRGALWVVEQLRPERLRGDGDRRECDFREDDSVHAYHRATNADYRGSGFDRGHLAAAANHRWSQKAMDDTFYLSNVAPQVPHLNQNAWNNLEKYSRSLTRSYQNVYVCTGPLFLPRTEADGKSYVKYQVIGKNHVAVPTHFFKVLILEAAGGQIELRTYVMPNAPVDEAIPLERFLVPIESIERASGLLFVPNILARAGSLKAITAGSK
Description: as §2

RNase A = assay: Ribonuclease A activity in NRK-52E cell extract; assay type: biochemical; conditions: 0.1 μM and 10 μM
Description: as §3

SOD = SOD activity in NRK-52E cell extract; assay type: biochemical; conditions: 0.1 μM and 10 μM
Description: as §3

22Rv1 cells = assay: Cytoprotection against Cisplatin-induced cell death, LDH release assay; assay type: cell-based, human; conditions: Cisplatin 60 μM, inhibitor 50 μM
Description: To test cytotoxic activities of the inhibitors, human prostrate carcinoma epithelial 22Rv1 cells, which naturally express EndoG, were exposed to Cisplatin (60 μM) in the presence or absence of PNR-3-80 (50 μM) and cell death was measured by the LDH release assay.

EndoG [3] = molecular target: T5, EndoG; assay: Plasmid incision assay; assay type: biochemical; conditions: agarose gel, FIG. 9
Description: A reaction mixture was prepared containing 0.5 μg pECFP plasmid DNA, 2 mM CaCl2, 5 mM MgCl2, 10 mM Tris-HCl, pH 7.4, 0.5 mM dithiothreitol. The test compound [50 ng in DMSO (1 μl)] was added. Recombinant EndoG was then added to the final concentration of 200 ng/ml and the reaction was incubated for 1 h at 37° C. The reaction was terminated by adding 2 μl of 10 mM Tris-HCl, pH 7.4, 1% SDS, 25 mM EDTA, 7.2 mM bromophenol blue. The samples were run in 1% agarose gel in Tris-acetate-EDTA buffer (40 mM Tris, 20 mM acetic acid, 1 mM EDTA, pH 8), at 7 V/cm for 35 min, and DNA was stained with ethidium bromide. An EagleEye scanning densitometer (Stratagene, La Jolla, Calif.) was utilized to quantify the relative amount of endonuclease-treated plasmid DNA present in a covalently-closed circular (supercoiled) DNA, open circular DNA, or linear DNA, or in a digested form.

protease = assay: Protease activity in NRK-52E cell extract; assay type: biochemical; conditions: 0.1 μM and 10 μM
Description: as §3

T1 sequence (P26663 1027-1657): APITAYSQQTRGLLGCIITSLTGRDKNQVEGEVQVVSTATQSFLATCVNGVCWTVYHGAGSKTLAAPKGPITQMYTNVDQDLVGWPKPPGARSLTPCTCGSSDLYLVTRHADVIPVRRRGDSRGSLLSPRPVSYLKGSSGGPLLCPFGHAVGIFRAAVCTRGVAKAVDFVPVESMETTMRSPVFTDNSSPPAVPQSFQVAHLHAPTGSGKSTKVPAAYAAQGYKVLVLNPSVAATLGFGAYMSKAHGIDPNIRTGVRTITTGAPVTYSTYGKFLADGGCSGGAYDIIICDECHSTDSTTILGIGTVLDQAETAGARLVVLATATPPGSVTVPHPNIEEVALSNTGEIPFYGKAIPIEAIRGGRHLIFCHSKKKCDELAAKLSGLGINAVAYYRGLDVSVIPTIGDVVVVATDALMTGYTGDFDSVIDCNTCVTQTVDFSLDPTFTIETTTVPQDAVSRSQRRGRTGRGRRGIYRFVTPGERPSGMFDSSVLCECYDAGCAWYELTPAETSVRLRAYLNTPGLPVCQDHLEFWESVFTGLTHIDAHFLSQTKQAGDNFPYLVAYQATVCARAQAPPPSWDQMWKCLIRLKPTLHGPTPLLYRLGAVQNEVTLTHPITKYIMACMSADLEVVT
T2 sequence (P26663 1027-1657): as above
Sequence of NS3-4A (P26663 1027-1657): as above
Sequence of NS3-4A (P26663 1658-1711): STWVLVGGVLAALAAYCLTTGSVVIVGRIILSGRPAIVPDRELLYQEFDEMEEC

O=C1NC(=S)NC(=O)C1=Cc1cn(C(=O)c2ccc3ccccc3c2)c2ccccc12 [ITBA-3-79]
NS3 protease activity (NS3-4A): do not block protease activity | IC50 (HCV NS3 helicase): ~20 µM and 21.6 µM | NS3 helicase activity, gel electrophoresis (NS3 helicase): confirmed the inhibition

COc1ccc2c(c1)c(C=C1C(=O)NC(=S)NC1=O)cn2C(=O)c1cccc2ccccc12 [ITBA-3-85]
NS3 protease activity (NS3-4A): do not block protease activity | IC50 (HCV NS3 helicase): ~20 µM and 23.5 µM | NS3 helicase activity, gel electrophoresis (NS3 helicase): confirmed the inhibition

O=C1NC(=S)NC(=O)C1=Cc1cn(C(=O)c2ccc3ccccc3c2)c2ccc(Cl)cc12 [PNR-3-80]
effect on DNase II activity (DNase II): did not have any effect | IC50 (DNase I): 11.2 µM | LDH activity (LDH): none of the two tested compounds had any inhibiting activity | cytoprotection against Docetaxel-induced cell death [1]: cytoprotective | remaining activity at 1 µM (EndoG [2]; 20 min, compound 1 μM, read-out: % EndoG activity in the presence of the compound): 36% | IC50 (EndoG [2]; IC50 against EndoG, EndoG screening assay): 0.671 µM and 0.67 µM | RNase A activity (RNase A): none of the two tested compounds had any inhibiting activity | SOD activity (SOD): none of the two tested compounds had any inhibiting activity | inhibition of Cisplatin-induced cell death (22Rv1 cells): significant and complete inhibition | inhibition of Cisplatin-induced cell death (22Rv1 cells; listed as P-NR-30): complete inhibition | protection of supercoiled plasmid DNA from degradation by EndoG (EndoG [3]): significantly protected the plasmid DNA from degradation | protease activity (protease): none of the two tested compounds had any inhibiting activity
